From US4699925A, “Biphenylylpropionic acid derivative and pharmaceutical composition containing the same” (priority 1982, dated 1987)
Where two headings read alike, the source gives them in different places.

Assays:
[1] = system: carrageenan-induced edema; assay: Inhibitory effect on carrageenan-induced edema; format: in vivo, Wistar male rats; conditions: Rattus norvegicus
Description: Five Wistar male rats weighing about 150 g. were used as one group. A 1% dispersion of carrageenan was injected intracutaneously into the foot pad of the right hind foot in a dose of 0.1 ml./rat. The compounds to be tested were orally administered to the rats fasted for 15 hours one hour before the carrageenan injection, or intravenously administered 2 hours […] the carrageenan injection. The volume of the foot subjected to the injection was measured by a mercury plethysmography 3 hours after the carrageenan injection on the test by oral route or 2 hours after the carrageenan injection on the test by intravenous route, and the carrageenan-induced edema was estimated from the obtained measurements.

[2] = Gastric ulceration (gastric irritation test); design: species or system Wistar male rats; conditions: rat, in vivo, po, read-out: UD50
Description: Five Wistar male rats weighing about 150 g. were used as one group. The rats were fasted for 24 hours before the test.
Six hours after orally administration of the present compounds to be tested, there was observed an existence of gastric ulcer by the method of Okabe et al (Ohyoyakuri, 16, 241 to 247 (1978)). The UD50 values were calculated from the ulcer incidence of gastric ulcer by the method of Litchfield-Wilcoxon.

[3] = Hydrolysis of FP derivatives in human plasma; format: in vitro ADME; conditions: 37° C., one hour, read-out: Hydrolyzing rate
Description: (§1) Each reaction mixture was incubated at 37° C. for one hour.
(§2) The free FP formed by esterase in the plasma was extracted with benzene. After treating the extract with N,O-bis(trimethylsilylacetamide) for trimethylsilylation, the obtained material was determined by gas-liquid chromatography.

Acute toxicity = assay: Acute toxicity; design: species or system male SLC-ddY mice; conditions: mouse, in vivo, po
[4] = Hydrolysis of FP derivatives in rat plasma; format: in vitro ADME; conditions: Table 4; rat plasma (Compound Nos. 8 to 13), 37° C., one hour; read-out: Hydrolyzing rate
Description: as §1, §2

[5] = Table 1, orally in rats, 50% ulcerative dose
[6] = Table 3, rats, orally, six hours after administration
[7] = human, plasma, Table 1, human plasma
[8] = human, plasma, Table 4, human plasma (Compound Nos. 1 to 7)
[9] = Table 1, orally in mice, 50% lethal dose
[10] = Table 5, mice, orally, observation for 2 weeks

| SMILES | ED50 ([1]; iv, 2 h, read-out: ED50 i.v.) | ED50 ([1]; po, 1 h, read-out: ED50 p.o.) | ED50 ([1]; po, read-out: ED50 p.o.) | TD50 at 6 h [2, 5] | TD50 at 6 h [2, 6] | metabolised at 1 h [3, 7] | metabolised at 1 h [3, 8] | LD50 at 336 h (Acute toxicity; [9]) | LD50 at 336 h (Acute toxicity; [10]) | metabolised at 1 h [4] | ED50 ([1]; po, 1 h, Table 1, rats, orally, one hour before carrageenan injection, read-out: ED50 p.o.) | ED50 ([1]; po, Table 2, rats, orally one hour before carrageenan injection, measured 3 hours after carrageenan, read-out: ED50 p.o.) | metabolised at 1 h ([3]; Table 4, human plasma (Compound Nos. 1 to 7)) |
| --- | --- | --- | --- | --- | --- | --- | --- | --- | --- | --- | --- | --- | --- |
| CC(=O)OCOC(=O)C(C)c1ccc(-c2ccccc2)c(F)c1 (stereo not shown) [Compound No. 1, acetoxymethyl 2-(2-fluoro-4-biphenylyl)propionate] | 0.08 mg/kg | 0.5 mg/kg | 0.5 mg/kg | 3.7 mg/kg | 3.6 mg/kg | 97.5% | 97.5% | 880 mg/kg | 880 mg/kg |  |  |  |  |
| CCC(=O)OCOC(=O)C(C)c1ccc(-c2ccccc2)c(F)c1 (stereo not shown) [Compound No. 2, propionyloxymethyl 2-(2-fluoro-4-biphenylyl)propionate] | 0.07 mg/kg | 0.5 mg/kg | 0.5 mg/kg | 2.5 mg/kg | 2.5 mg/kg | 94.6% | 94.6% | 750 mg/kg | 750 mg/kg |  |  |  |  |
| CC(C)C(=O)OCOC(=O)C(C)c1ccc(-c2ccccc2)c(F)c1 (stereo not shown) [Compound No. 3, isobutyryloxymethyl 2-(2-fluoro-4-biphenylyl)propionate] | 0.1 mg/kg | 0.6 mg/kg | 0.6 mg/kg | 2 mg/kg | 2 mg/kg | 86.3% | 86.3% | 600 mg/kg | 600 mg/kg |  |  |  |  |
| C/C=C/C(=O)OCOC(=O)C(C)c1ccc(-c2ccccc2)c(F)c1 (stereo not shown) [Compound No. 4, crotonoyloxymethyl 2-(2-fluoro-4-biphenylyl)propionate] | 0.08 mg/kg | 0.6 mg/kg | 0.6 mg/kg | 2 mg/kg | 2 mg/kg | 81.4% | 81.4% | 600 mg/kg | 600 mg/kg |  |  |  |  |
| CC(C)=CC(=O)OCOC(=O)C(C)c1ccc(-c2ccccc2)c(F)c1 (stereo not shown) [Compound No. 5, 3,3-dimethylacryloyloxymethyl 2-(2-fluoro-4-biphenylyl)propionate] | 0.06 mg/kg | 0.5 mg/kg | 0.5 mg/kg | 2 mg/kg | 2 mg/kg | 64.8% | 115% | 900 mg/kg | 900 mg/kg |  |  |  |  |
| CCCCCCCCCCCCCCCC(=O)OCOC(=O)C(C)c1ccc(-c2ccccc2)c(F)c1 (stereo not shown) [Compound No. 6, palmitoyloxymethyl 2-(2-fluoro-4-biphenylyl)propionate] | 0.5 mg/kg | 1.5 mg/kg | 1.5 mg/kg | 5 mg/kg | 5 mg/kg | 3.8% | 3.8% | 1000 mg/kg | > 1000 mg/kg |  |  |  |  |
| CC(C(=O)OCOC(=O)C(C)(C)C)c1ccc(-c2ccccc2)c(F)c1 (stereo not shown) [Compound No. 7, pivaloyloxymethyl 2-(2-fluoro-4-biphenylyl)propionate] | 0.1 mg/kg | 0.6 mg/kg | 0.6 mg/kg | 2.5 mg/kg | 2.5 mg/kg | 70.3% | 70.3% | 840 mg/kg | 840 mg/kg |  |  |  |  |
| CC(=O)OCCOC(=O)C(C)c1ccc(-c2ccccc2)c(F)c1 (stereo not shown) [Compound No. 8, 2-(acetoxy)ethyl 2-(2-fluoro-4-biphenylyl)propionate] |  | 0.7 mg/kg | 0.7 mg/kg | 2 mg/kg | 2 mg/kg |  |  | 650 mg/kg | 650 mg/kg | 101% |  |  |  |
| CCC(=O)OCCOC(=O)C(C)c1ccc(-c2ccccc2)c(F)c1 (stereo not shown) [Compound No. 9, 2-(propionyloxy)ethyl 2-(2-fluoro-4-biphenylyl)propionate] |  | 0.7 mg/kg | 0.7 mg/kg | 2 mg/kg | 2 mg/kg |  |  | 700 mg/kg | 700 mg/kg | 98.9% |  |  |  |
| C/C=C/C(=O)OCCOC(=O)C(C)c1ccc(-c2ccccc2)c(F)c1 (stereo not shown) [Compound No. 10, 2-(crotonoyloxy)ethyl 2-(2-fluoro-4-biphenylyl)propionate] |  | 0.9 mg/kg | 0.9 mg/kg | 3 mg/kg | 3 mg/kg |  |  | 800 mg/kg | 800 mg/kg | 99.5% |  |  |  |
| CC(C)=CC(=O)OCCOC(=O)C(C)c1ccc(-c2ccccc2)c(F)c1 (stereo not shown) [Compound No. 11, 2-(3,3-dimethylacryloyloxy)ethyl 2-(2-fluoro-4-biphenylyl)propionate] |  | 1 mg/kg | 1 mg/kg | 3 mg/kg | 3 mg/kg |  |  | 880 mg/kg | 880 mg/kg | 99.8% |  |  |  |
| CC=CC=CC(=O)OCCOC(=O)C(C)c1ccc(-c2ccccc2)c(F)c1 (stereo not shown) [Compound No. 12, 2-(2,4-hexadienoyloxy)ethyl 2-(2-fluoro-4-biphenylyl)propionate] |  | 0.9 mg/kg | 0.9 mg/kg | 3 mg/kg | 3 mg/kg |  |  | 750 mg/kg | 750 mg/kg | 100% |  |  |  |
| CC(C)=CCCC(C)=CC(=O)OCCOC(=O)C(C)c1ccc(-c2ccccc2)c(F)c1 (stereo not shown) [Compound No. 13, 2-(3,7-dimethyl-2,6-octadienoyloxy)ethyl 2-(2-fluoro-4-biphenylyl)propionate] |  | 0.9 mg/kg | 0.9 mg/kg | 3 mg/kg | 3 mg/kg |  |  | 750 mg/kg | 750 mg/kg | 101% |  |  |  |
| CC(C(=O)O)c1ccc(-c2ccccc2)c(F)c1 (stereo not shown) [FP, 2-(2-fluoro-4-biphenylyl)propionic acid, reference compound] | 0.3 mg/kg | 0.8 mg/kg | 0.8 mg/kg | 1 mg/kg | 1 mg/kg |  |  | 440 mg/kg | 440 mg/kg |  |  |  |  |
| COc1ccc2c(c1)c(CC(=O)OCC(=O)O)c(C)n2C(=O)c1ccc(Cl)cc1 [acemethacin, reference compound] |  |  |  |  |  |  |  | 18 mg/kg | 18 mg/kg |  | 8.3 mg/kg | 8.3 mg/kg | 4.2% |
| COc1ccc2c(c1)c(CC(=O)O)c(C)n2C(=O)c1ccc(Cl)cc1 [indomethacin, reference compound] | 1.25 mg/kg | 5.5 mg/kg | 5.5 mg/kg | 5 mg/kg | 5 mg/kg |  |  | 14 mg/kg | 14 mg/kg |  |  |  |  |
